Measurements published in a melting point compilation (Tetko et al.; mined from patent text by program, amines drawn as free bases though some values may be those of a salt).

melting point [°C]	SMILES
123	C=CCn1c(C)nc2c(O)c(C(=O)[C@@H]3OC(C)(C)O[C@H]3c3ccccc3)ccc21
161 to 162	CCOC(=O)CC(=O)c1cc(F)c(O)nc1Nc1ccc(F)cc1F
195 to 197	O=C(O)C1(CO)CCc2cc(C3CCCCC3)c(Cl)cc21 (configuration not stated)
127 to 130	CCOc1cc2c(Nc3cc(OC)c(Cl)cc3Cl)c(C#N)cnc2cc1OCCCN1CCN(CC)CC1
198	Nc1cc2oc(=O)[nH]c2cc1[N+](=O)[O-]
121 to 122	CC(=O)CC1(C(=O)c2ccc([N+](=O)[O-])cc2)C=CC(Cl)=C(Cl)C1 (configuration not stated)
136 to 138	CN(C)C=Nc1nc(OC(=O)c2ccccc2)ncc1F
127 to 131	Cn1cc(CCNC(=O)OC(C)(C)C)c2cc(S(=O)(=O)c3ccccc3)ccc21
126 to 128	CC(=O)c1ccc(-c2ccc(S)cc2)cc1
139 to 141	COc1cc(-c2cn3ccccc3n2)c(F)cc1Cl
126 to 129	CCCCOC(=O)n1nc(-c2cccc(Br)c2)ccc1=O
158	COc1ccc(C2CNC(=O)C2)cc1I (configuration not stated)
150 to 151	CCCc1cc(=O)oc2cc(OS(=O)(=O)c3ccc(C)cc3)c3c(c12)OC(C)(C)C=C3
142 to 146	CC(=O)N(O)C(C)c1cccc(Nc2ccccc2-c2nnc(N)o2)c1Cl (configuration not stated)
179 to 180	COc1ccc(C(=O)Nc2cccnc2)cc1NC(=S)Nc1ccc(Cl)c(Cl)c1
114	Cc1ccc(S(=O)(=O)N2CCCC2c2ccsc2)cc1 (racemic)
92	CCOc1ccc(C=C(CSC(C)=O)C(=O)NCCC(=O)OCc2ccccc2)cc1
259 to 265	Cc1ccccc1-c1cc(F)c2ncc(C(=O)NCc3ccc(Cl)cc3)c(O)c2c1
202 to 205	COc1ccc(Cn2nnc(-c3cccc(C(=O)NCc4ccc(C(=O)O)cc4)c3)n2)cc1
133 to 135	CNS(=O)(=O)Cc1ccc2c(c1)c(CC#N)cn2Cc1ccccc1
124 to 130	COc1cc2ncc(C#N)c(Nc3ccc(Sc4ccccc4)c(Cl)c3)c2cc1OC
185 to 188	O=C(NCc1ccc(Cl)cc1)c1cnc2cc(C(F)(F)F)c(SCc3ccccc3)cc2c1O
151 to 158	CCOC(=O)c1ccccc1-c1ccc2nc[nH]c(=O)c2c1
88 to 90	COC(=O)c1cccc(-c2ccccc2[N+](=O)[O-])c1
196 to 199	CNCc1cc2c(=O)c(C(=O)NCc3ccc(Cl)cc3)cn(C)c2s1
123 to 125	COc1cc(NC(=O)Nc2ccccc2)c(O)c(OC)c1OC
302 to 304	N#Cc1[nH]c2ccc(C(=O)O)cc2c1-c1ccccc1

melting point [°C]	SMILES
205	Clc1ccc(Cl)c(CN2CCNc3ncc(-c4ccc(Cl)nc4)cc32)c1
188 to 192	CN(C)c1ccc(-n2c(CC(=O)O)c(C(=O)O)c3cc(Oc4ccc(OC(F)(F)F)cc4)ccc32)cc1
130 to 134	CC1(C)Oc2ccc([N+](=O)[O-])cc2C(Br)C1Br (configuration not stated)
162 to 164	COc1cc(N)c(C(=O)CS(C)=O)cc1OC (configuration not stated)
166 to 168	O=C1C(=O)c2ccccc2C2=C1SCC1(CCC(O)CC1)O2 (configuration not stated)
153 to 156	CCc1nc2c(cnn2CC)c(NC2CCOCC2)c1CNC(=O)c1cc(C)cc(C(=O)NCc2ccc(Cl)c(-c3cccc(C=O)c3)c2)c1
128 to 129	COc1ccc2c(c1)c(CC(=O)OCC(=O)O)c(C)n2C(=O)c1ccc(F)c(F)c1
186 to 188	CC(C)CNc1cccc(-c2ccnc3c(C(=O)c4cccs4)cnn23)c1
174 to 175	CC(=O)c1ccc(NC2=Nc3ccc(Cl)cc3CS2)cc1
267 to 273	CCOC(=O)c1cn2c3c(c(-c4cc(C)nc(C)c4)c(F)cc3c1=O)OC[C@@H]2C
222 to 224	O=C(O)c1ccc(-n2ccc3ccccc32)cc1
136 to 138	N#CC1=C(Nc2ccc(Br)cc2)CCC1
231 to 233	Cc1cc(NC(=O)c2ccccc2C)ccc1C(=O)O
165 to 166	CC(C)(Oc1ccc(CCC(=O)c2ccc(-c3ccc(C(F)(F)F)cc3)s2)c(F)c1F)C(=O)O
104 to 108	CCOC(=O)C1(NC(C)=O)CC2c3cc(C)ccc3Oc3ccccc3N2C1=O (configuration not stated)
198 to 199	O=C(COc1cccc2ccccc12)c1cc(O)c(O)c([N+](=O)[O-])c1
268 to 272	Cc1[nH]c2ccccc2c1/C=C/C(=O)c1ccncc1
111 to 114	CC(C)(C)c1cc(C(=O)COc2ccc(Cl)cc2Oc2ccc(Cl)cc2Cl)cc(C(C)(C)C)c1O
141 to 143	CSc1nc(NCc2ccc(-c3ccsc3)cc2)n2ncc(C(C)C)c2n1
207 to 210	O=S(=O)(c1ccc(-n2cccc2)cc1)c1cccc2cnccc12
181 to 182	CN1N=CC(=CNCc2ccc(F)cc2F)C1=O
135 to 137	Cc1cccc(C)c1N(C(=O)CN)C(=O)CCl
168 to 171	CC(C)(C)NS(=O)(=O)c1cc([N+](=O)[O-])ccc1Cl
186 to 187	O=C(Cc1ccc(Cl)cc1)N1CCc2cc(S(=O)(=O)N3CCN(c4cccc(Cl)c4)CC3)ccc21
125 to 128	CNS(=O)(=O)c1cccc(S(N)(=O)=O)c1
124 to 125	COC(=O)C=C1c2ccccc2C=C(OC)c2sccc21

The remaining lines, values behind:

SMILES	melting point [°C]
COc1ccc2cc(C3=CCNCC3)sc2c1	124 to 127
CC(=O)N[C@H]1CC[C@H](CCN2CCN(c3nc(C)cc4c3CCO4)CC2)CC1	218
CC(C(=O)O)c1ccc(-c2cn3ccccc3n2)cc1 (configuration not stated)	244 to 246
Oc1ncnc2nc(CC3CCN(CC4COc5ccccc5O4)CC3)n(Cc3ccc(F)cc3)c12 (configuration not stated)	175
CON=Cc1ccc2c(c1)c1c(n2CCc2cccc(F)n2)CC[C@@H](NC(=O)C2CC2)C1	223 to 225
CCOC(=O)c1ncn2c1[C@@H]1CCCN1C(=O)c1ccccc1-2	196 to 197
CCCN(Cc1ccc(-c2ccccc2-c2nnnn2C(c2ccccc2)(c2ccccc2)c2ccccc2)cc1)c1ncncc1C(=O)OCC	100 to 103
Cc1cc(C)n(-c2nc(Nc3cccc4cccnc34)c3ccccc3n2)n1	184 to 185
CCCCc1nc2c(C(N)=O)cccc2n1Cc1ccc(-c2ccccc2-c2nnn[nH]2)cc1	235 to 236
N#CCc1cnn2ccc3c(c12)CCO3	165 to 166
CCCn1nc(C)c2nc(C)nc(O)c21	196 to 198
COC(=O)CNCCNC(=O)c1nc(Cl)c(N)nc1N	145 to 146
Cc1ccc(NC(=O)c2ccc(C(=O)Nc3ccccc3N)s2)cc1Nc1nc(-c2cccnc2)cs1	242
Cc1oc(-c2ccccc2)nc1COc1ccc(/C=C/CO)cc1	134 to 135
N#Cc1ccc(OC2CCOC2=O)cc1C(F)(F)F (configuration not stated)	107 to 108
CCCc1nc2ccccc2c(C(=O)O)c1Oc1ccc(-c2ccccc2-c2nnn(C(c3ccccc3)(c3ccccc3)c3ccccc3)n2)cc1	167 to 170
O=C1N(c2ccccc2)c2ccccc2C1(Cc1ccccn1)Cc1ccccn1	107 to 111
COc1ccc(C=Cc2cc(Br)c(OC)c(OC)c2)cc1O	108 to 109
NC(CCCBr)C(=O)c1ccccc1 (configuration not stated)	74 to 76
COC(=O)CCCCCCc1ncsc1C=O	60 to 62
CC#CCOc1ccc(SC(C(=O)O)c2ccc(-c3cccs3)cc2)cc1 (configuration not stated)	137
CCCCCCCCOc1c(Cl)c(Sc2ccccc2N)c(OCCCCCCCC)c2c1C(=N)NC2=N	97 to 99

SMILES	melting point [°C]
COc1ccc(N2CCN(CCC3OCCc4cc(C(N)=O)ccc43)CC2)cc1 (configuration not stated)	180 to 182
COc1ccc2c(n1)C1(CO2)C(=O)N(CC(=O)Nc2ccccc2F)c2ccccc21 (configuration not stated)	> 170
Cc1c(SCCN)ccnc1CSc1nc2ccccc2[nH]1	158 to 160
CCOC(=O)c1c(CC)nn2ccc3c(c12)CCO3	110 to 111
C=CCC(CO)C(O)c1cccnc1 (configuration not stated)	112 to 113
c1ccc(-c2nc3n(c2-c2ccccn2)CCS3)nc1	142 to 143
CCCCOc1cc(-c2ccccc2)c(OCC(=O)O)c(-c2ccccc2)c1	92 to 94
N#Cc1ccccc1C(Cl)(Cl)Cl	98.9 to 100
O=C(c1cccs1)c1cnn2c(-c3cccc(-c4ccn(CCN5CCCC5)n4)c3)ccnc12	63
Cc1cc2c(cc1O)OC[C@@H](N1CCC(O)(c3ccc(F)cc3)CC1)[C@H]2O (relative stereo)	174
COc1nc2ccc(Br)cc2cc1C(Br)c1ccccc1 (configuration not stated)	85 to 86
S=C(NCc1cccnc1)NC(=Nc1ccccc1)c1ccccc1	146 to 147
O=C(c1ccc(Cl)cc1)c1cc(-c2ccc(Cl)cc2)c(N2CCOCC2)s1	145 to 149
Cc1cccc(NC(=O)NC2N=C(C3CCCCC3)c3ccccc3N(CC(=O)N3CC4CCC(CC4)C3)C2=O)c1 (racemic)	133 to 135
O=C(O)COc1c2ccccc2c(-c2cc(Br)c(OC(Cc3ccccc3)C(=O)O)c(Br)c2)c2c1sc1ccccc12 (configuration not stated)	110 to 120
CCCCCCCCNCC(O)C(O)C(O)C(O)CO (configuration not stated)	114 to 116
Fc1ccc(-c2cc3ccccc3n2-c2ccccc2)cc1	126 to 128
O=S(Cc1ccccc1NC1CCCC1)c1nc2ncccc2[nH]1 (configuration not stated)	134
CN1CCC(CC(=O)N2c3ccccc3NC(=O)c3cscc32)CC1	184 to 185
O=C(NC1CCN(C(=O)NCCC2(C(=O)NCC(F)(F)F)c3ccccc3-c3ccccc32)CC1)c1ccccc1	220 to 222
COc1ccc2[nH]c3cc(-c4ccccc4-c4ccccc4)c4c(c3c2c1)C(=O)NC4=O	220 to 223
COCCOC(=O)C1Oc2ccccc2Cc2ccccc2O1	74 to 76
